In assay [1] the test system is HepG2. Description: Cytotoxicity against human HepG2 cells assessed as inhibition of cell proliferation after 24 hrs by SRB assay. It counts as functional, cell-based. The conditions noted are these: HepG2, 24 h. In general terms: In SRB staining, fixed cells bind dye roughly in proportion to their protein.
Assay [2] has as its system MCF7. Description: Cytotoxicity against human MCF7 cells assessed as inhibition of cell proliferation after 24 hrs by SRB assay. Type of assay: functional, cell-based. The conditions noted are these: MCF7, 24 h.
Assay [3] deals with HepG2. Description: Anticancer activity against human HepG2 cells assessed as viable cells after 48 hrs at 5 uM by SRB assay relative to control. Type of assay: functional. The conditions noted are these: HepG2, 48 h, read-out: Activity.
Assay [4] concerns HepG2. Description: Anticancer activity against human HepG2 cells assessed as viable cells after 48 hrs at 12.5 uM by SRB assay relative to control. It counts as functional. The conditions noted are these: HepG2, 48 h, read-out: Activity.
The test system of assay [5] is HepG2. Put plainly: Anticancer activity against human HepG2 cells assessed as viable cells after 48 hrs at 25 uM by SRB assay relative to control. Type of assay: functional. The conditions noted are these: HepG2, 48 h, read-out: Activity.
In assay [6] the test system is HepG2. Put plainly: Anticancer activity against human HepG2 cells assessed as viable cells after 48 hrs at 40 uM by SRB assay relative to control. Type of assay: functional. The conditions noted are these: HepG2, 48 h, read-out: Activity.
The test system of assay [7] is HepG2. Put plainly: Anticancer activity against 4 Gy gamma-irradiated human HepG2 cells assessed as viable cells after 48 hrs at 5 uM by SRB assay (reference value: 18.73%). Type of assay: functional. Particulars: HepG2, light or radiation study, read-out: Activity.
In assay [8] the test system is HepG2. Put plainly: Anticancer activity against 4 Gy gamma-irradiated human HepG2 cells assessed as viable cells after 48 hrs at 12.5 uM by SRB assay (reference value: 18.73%). The conditions noted are these: HepG2, light or radiation study, read-out: Activity. Type of assay: functional.
For assay [9], the system named is HepG2. Put plainly: Anticancer activity against 4 Gy gamma-irradiated human HepG2 cells assessed as viable cells after 48 hrs at 25 uM by SRB assay (reference value: 18.73%). Particulars: HepG2, light or radiation study, read-out: Activity. It counts as functional.
Assay [10] relates to HepG2. Put plainly: Anticancer activity against 4 Gy gamma-irradiated human HepG2 cells assessed as viable cells after 48 hrs at 40 uM by SRB assay (reference value: 18.73%). It counts as functional. The conditions noted are these: HepG2, light or radiation study, read-out: Activity.
Assay [11] relates to HepG2. Description: Anticancer activity against 4 Gy gamma-irradiated human HepG2 cells assessed as viable cells after 48 hrs at 5 uM by SRB assay (reference value: 21.2%). Type of assay: functional. The conditions noted are these: HepG2, light or radiation study, read-out: Activity.
Assay [12] has as its system HepG2. Description: Anticancer activity against 4 Gy gamma-irradiated human HepG2 cells assessed as viable cells after 48 hrs at 12.5 uM by SRB assay (reference value: 21.2%). Particulars: HepG2, light or radiation study, read-out: Activity. Type of assay: functional.
Assay [13] deals with HepG2. Put plainly: Anticancer activity against 4 Gy gamma-irradiated human HepG2 cells assessed as viable cells after 48 hrs at 25 uM by SRB assay (reference value: 21.2%). Particulars: HepG2, light or radiation study, read-out: Activity. Type of assay: functional.
Assay [14] relates to HepG2. Put plainly: Anticancer activity against 4 Gy gamma-irradiated human HepG2 cells assessed as viable cells after 48 hrs at 40 uM by SRB assay (reference value: 21.2%). It counts as functional. Particulars: HepG2, light or radiation study, read-out: Activity.
Assay [15] concerns MCF7. Description: Anticancer activity against human MCF7 cells assessed as viable cells after 48 hrs at 5 uM by SRB assay relative to control. It counts as functional. Particulars: MCF7, 48 h, read-out: Activity.
Assay [16] concerns MCF7. Description: Anticancer activity against human MCF7 cells assessed as viable cells after 48 hrs at 12.5 uM by SRB assay relative to control. The conditions noted are these: MCF7, 48 h, read-out: Activity. It counts as functional.
Assay [17] concerns MCF7. Description: Anticancer activity against human MCF7 cells assessed as viable cells after 48 hrs at 25 uM by SRB assay relative to control. Type of assay: functional. The conditions noted are these: MCF7, 48 h, read-out: Activity.
The subject of assay [18] is MCF7. Put plainly: Anticancer activity against human MCF7 cells assessed as viable cells after 48 hrs at 40 uM by SRB assay relative to control. Particulars: MCF7, 48 h, read-out: Activity. Type of assay: functional.
For assay [19], the system named is MCF7. Put plainly: Anticancer activity against 4 Gy gamma-irradiated human MCF7 cells assessed as viable cells after 48 hrs at 5 uM by SRB assay (reference value: 7.3%). Type of assay: functional. The conditions noted are these: MCF7, light or radiation study, read-out: Activity.
Assay [20] deals with MCF7. Description: Anticancer activity against 4 Gy gamma-irradiated human MCF7 cells assessed as viable cells after 48 hrs at 12.5 uM by SRB assay (reference value: 7.3%). Type of assay: functional. The conditions noted are these: MCF7, light or radiation study, read-out: Activity.
For assay [21], the system named is MCF7. Put plainly: Anticancer activity against 4 Gy gamma-irradiated human MCF7 cells assessed as viable cells after 48 hrs at 25 uM by SRB assay (reference value: 7.3%). Particulars: MCF7, light or radiation study, read-out: Activity. It counts as functional.
The subject of assay [22] is MCF7. Description: Anticancer activity against 4 Gy gamma-irradiated human MCF7 cells assessed as viable cells after 48 hrs at 40 uM by SRB assay (reference value: 7.3%). The conditions noted are these: MCF7, light or radiation study, read-out: Activity. It counts as functional.

pIC50: −log10 of the molar value.

A word on the pIC50: it is the IC50 on a negative log10 scale, so that one unit is a factor of ten. Take `O=C(CNc1ccc(S(=O)(=O)Nc2ccccn2)cc1)c1ccccc1`: the pIC50 with HepG2 [1] was 5.17; with MCF7 [2], 5.12.

`Nc1nc(=O)[nH]c2c1c(-c1ccccc1)cn2-c1ccc(S(=O)(=O)Nc2ccccn2)cc1`: the pIC50 in the assay with HepG2 [1] was 5.37; in the assay on MCF7 [2], 5.41.

In the case of `N#Cc1c(-c2ccccc2)cn(-c2ccc(S(=O)(=O)Nc3ccccn3)cc2)c1N1C(=O)CCC1=O`, the negative logarithm of the IC50 (pIC50) in the assay on HepG2 [1] was 5.27; in the assay with MCF7 [2], 5.00.

As for `Nc1nc(=S)[nH]c2c1c(-c1ccccc1)cn2-c1ccc(S(=O)(=O)Nc2nccs2)cc1`, the values for the pIC50 in the assay with HepG2 [1] and in the assay on MCF7 [2] were 5.39 and 5.51, respectively.

On to `O=c1[nH]cnc2c1c(-c1ccccc1)cn2-c1ccc(S(=O)(=O)Nc2ccccn2)cc1`, for which the pIC50 with HepG2 [1] is 5.33; in the assay with MCF7 [2] it was 5.27.

In the case of `N#Cc1c(-c2ccccc2)cn(-c2ccc(S(=O)(=O)Nc3ccccn3)cc2)c1NC(=O)CCC(=O)O`, the values for the pIC50 with HepG2 [1] and in the assay on MCF7 [2] were 5.43 and 5.08, respectively. Moreover, the viability at 5 µM was 15.1% with HepG2 [3] and 81.4% with HepG2 [7]. The results for the viability at 12.5 µM in the assay with HepG2 [4] and with HepG2 [8] were 60.3% and 84.4%, respectively. The values for the viability at 25 µM in the assay with HepG2 [5] and in the assay with HepG2 [9] were 72% and 89.2%, respectively. Moreover, the viability at 40 µM in the assay on HepG2 [6] was found to be 78%; in the assay on HepG2 [10] it was 87.7%.

`CC(=O)Nc1c(C#N)c(-c2ccccc2)cn1-c1ccc(S(=O)(=O)Nc2ccccn2)cc1`: the pIC50 was 5.46 with HepG2 [1] and 4.93 in the assay on MCF7 [2]. For the same compound, the viability at 5 µM amounted to 30.3% with HepG2 [3] and 57.4% with HepG2 [11]. The values for the viability at 12.5 µM in the assay with HepG2 [4] and in the assay on HepG2 [12] were 53.5% and 69.5%, respectively. Further, the viability at 25 µM in the assay on HepG2 [5] was found to be 62.7%; in the assay on HepG2 [13], 82.5%. Further, the viability at 40 µM is 69.9% with HepG2 [6] and 82.5% in the assay with HepG2 [14].

`N#Cc1c(-c2ccccc2)cn(-c2ccc(S(=O)(=O)Nc3nccs3)cc2)c1N1C(=O)CCC1=O`: the values for the pIC50 in the assay on HepG2 [1] and in the assay with MCF7 [2] were 5.34 and 5.17, respectively.

Regarding `Nc1ncnc2c1c(-c1ccccc1)cn2-c1ccc(S(=O)(=O)Nc2ccccn2)cc1`, the pIC50 was 5.39 in the assay on HepG2 [1] and 5.20 in the assay with MCF7 [2].

Take `N#Cc1c(-c2ccccc2)cn(-c2ccc(S(=O)(=O)Nc3ccccn3)cc2)c1N`: the pIC50 with HepG2 [1] is 5.28; in the assay on MCF7 [2] it was 5.34.

For the compound `N#Cc1c(-c2ccccc2)cn(-c2ccc(S(=O)(=O)Nc3ccccn3)cc2)c1NC(N)=O`, the pIC50 in the assay on HepG2 [1] is 5.39; with MCF7 [2] it was 5.13.

For the compound `Nc1nc(=S)[nH]c2c1c(-c1ccccc1)cn2-c1ccc(S(=O)(=O)Nc2ccccn2)cc1`, the pIC50 was 5.39 with HepG2 [1] and 5.42 with MCF7 [2].

Take `N#Cc1c(-c2ccccc2)cn(-c2ccc(S(=O)(=O)Nc3nccs3)cc2)c1NC(=O)CCC(=O)O`: the figures for the pIC50 in the assay on HepG2 [1] and in the assay with MCF7 [2] were 5.43 and 5.04, respectively. The viability at 5 µM with HepG2 [3] was 25%; with HepG2 [11], 60.6%. Also, the viability at 12.5 µM in the assay on HepG2 [4] worked out at 39.6%; with HepG2 [12], 72.6%. Moreover, the results for the viability at 25 µM with HepG2 [5] and with HepG2 [13] were 36% and 71.8%, respectively. Moreover, the results for the viability at 40 µM in the assay with HepG2 [6] and with HepG2 [14] were 49.6% and 79.4%, respectively.

With `O=c1[nH]cnc2c1c(-c1ccccc1)cn2-c1ccc(S(=O)(=O)Nc2nccs2)cc1`, the pIC50 in the assay on HepG2 [1] is 5.28; in the assay with MCF7 [2], 5.21.

In the case of `CC(=O)Nc1c(C#N)c(-c2ccccc2)cn1-c1ccc(S(=O)(=O)Nc2nccs2)cc1`, the pIC50 was 5.40 with HepG2 [1] and 5.14 in the assay on MCF7 [2].

With `O=C(CNc1ccc(S(=O)(=O)Nc2nccs2)cc1)c1ccccc1`, the pIC50 in the assay on HepG2 [1] was 5.17; with MCF7 [2], 5.05.

On to `Nc1nc(=O)[nH]c2c1c(-c1ccccc1)cn2-c1ccc(S(=O)(=O)Nc2nccs2)cc1`, for which the pIC50 in the assay on HepG2 [1] was 5.46; in the assay with MCF7 [2], 5.08. The viability at 5 µM in the assay on HepG2 [3] is 22.3%; in the assay on HepG2 [11], 61.7%. The viability at 12.5 µM in the assay with HepG2 [4] was found to be 47.7%; in the assay on HepG2 [12], 69.2%. Moreover, the viability at 25 µM in the assay on HepG2 [5] is 63.9%; in the assay with HepG2 [13] it was 78.3%. Besides, the viability at 40 µM came out at 63.6% in the assay on HepG2 [6] and 81.7% with HepG2 [14].

Take `COc1cccc2c1C(=O)c1c(O)c3c(c(O)c1C2=O)C[C@@](O)(C(=O)CO)C[C@@H]3O[C@H]1C[C@H](N)[C@H](O)[C@H](C)O1` [DOXORUBICIN]: the pIC50 with HepG2 [1] was 5.28.

Consider `Nc1ncnc2c1c(-c1ccccc1)cn2-c1ccc(S(=O)(=O)Nc2nccs2)cc1`, for which the pIC50 was 5.37 with HepG2 [1] and 5.19 in the assay with MCF7 [2].

On to `N#Cc1c(-c2ccccc2)cn(-c2ccc(S(=O)(=O)Nc3nccs3)cc2)c1NC(N)=O`, for which the pIC50 in the assay on HepG2 [1] is 5.40; in the assay on MCF7 [2], 5.09.

Turning to `Cc1nc2c(c(-c3ccccc3)cn2-c2ccc(S(=O)(=O)Nc3nccs3)cc2)c(=O)[nH]1`, the pIC50 with HepG2 [1] was 5.47; in the assay on MCF7 [2], 5.24.

In the case of `Cc1nc2c(c(-c3ccccc3)cn2-c2ccc(S(=O)(=O)Nc3ccccn3)cc2)c(=O)[nH]1`, the pIC50 is 5.50 in the assay with HepG2 [1] and 5.29 in the assay with MCF7 [2].

Turning to `N#Cc1c(-c2ccccc2)cn(-c2ccc(S(=O)(=O)Nc3nccs3)cc2)c1N`, the pIC50 in the assay with HepG2 [1] is 5.27; in the assay on MCF7 [2] it was 5.46. The results for the viability at 5 µM in the assay on MCF7 [15] and in the assay with MCF7 [19] were 11.3% and 41.5%, respectively. For the same compound, the viability at 12.5 µM in the assay with MCF7 [16] turned out to be 42.5%; with MCF7 [20], 65.3%. Besides, the viability at 25 µM with MCF7 [17] turned out to be 71.3%; with MCF7 [21] it was 82.3%. Further, the viability at 40 µM came to 72% with MCF7 [18] and 85.8% with MCF7 [22].
